In ChEMBL document CHEMBL1122481, “Substituted (2-phenoxyphenyl)acetic acids with antiinflammatory activity. 2” (J Med Chem, 1983):

Key:
Rattus norvegicus [1] = assay: Antiinflammatory activity in rats, at a dose of 10 mg/kg po(significant toxicity at 100 mg/kg), by adjuvant-induced arthritis test; type: functional
Rattus norvegicus [2] = assay: Antiinflammatory activity in rats, at a dose of 10 mg/kg po(significant toxicity at 100 mg/kg), activity expressed as minimum ulcerogenic dose(MUD) for a period of 24 hr; Value ranges from (200-400); type: functional
Rattus norvegicus [3] = species on record: Rattus norvegicus; assay: Potency measured relative to that of fenclofenac; type: functional
Rattus norvegicus [4] = assay: Antiinflammatory activity in rats, at a dose of 10 mg/kg po, activity expressed as minimum ulcerogenic dose(MUD) for a period of 24 hr; Value ranges from (100-200); type: functional
Rattus norvegicus [5] = species on record: Rattus norvegicus; assay: Potency measured relative to that of fenclofenac.; type: functional
[6] = Median lethal dose using 10 rats per dose.; type: ADME, organism-based; conditions: rat, in vivo
Rattus norvegicus [7] = assay: Antiinflammatory activity in rats, at a dose of 10 mg/kg po(showed some toxicity at this dose level), using adjuvant-induced arthritis test; type: functional
Rattus norvegicus [8] = assay: Antiinflammatory activity in rats, at a dose of 2 mg/kg po, using adjuvant-induced as arthritis test; type: functional
Rattus norvegicus [9] = assay: Antiinflammatory activity in rats, at a dose of 0.08 mg/kg po, using adjuvant-induced arthritis test; type: functional
Rattus norvegicus [10] = assay: Antiinflammatory activity in rats, at a dose of 100 mg/kg po, using adjuvant-induced arthritis test; type: functional
Rattus norvegicus [11] = assay: Antiinflammatory activity in rats, at a dose of 100 mg/kg po, activity expressed as minimum ulcerogenic dose(MUD) for a period of 24 hr; Value ranges from (400-800); type: functional
Rattus norvegicus [12] = species on record: Rattus norvegicus; assay: Antiinflammatory activity in rats, activity expressed as minimum ulcerogenic dose(MUD) for a period of 24 hr.; type: functional

SMILES: O=C(O)Cc1ccccc1Oc1c(Cl)ccc(Cl)c1Cl
- Inhibition (Rattus norvegicus [1]): 51%
- MUD (Rattus norvegicus [2]): 400 mg/kg
- Relative potency (Rattus norvegicus [3]): 14

SMILES: O=C(O)Cc1ccccc1Oc1c(Cl)c(Cl)cc(Cl)c1Cl
- MUD (Rattus norvegicus [4]): 200 mg/kg
- Relative potency (Rattus norvegicus [5]): 40
- LD50 [6]: 303 mg/kg
- inhibition in vivo at 10 mg/kg (Rattus norvegicus [7]): 44%
- inhibition in vivo at 2 mg/kg (Rattus norvegicus [8]): 38%

SMILES: O=C(O)Cc1ccccc1Nc1c(Cl)c(Cl)cc(Cl)c1Cl
- inhibition in vivo at 0.08 mg/kg (Rattus norvegicus [9]): 18%

SMILES: O=C(O)Cc1ccccc1Sc1c(Cl)c(Cl)cc(Cl)c1Cl
- Relative potency (Rattus norvegicus [3]): 0.21
- inhibition in vivo at 0.08 mg/kg (Rattus norvegicus [9]): < 22%

SMILES: O=C(O)Cc1ccccc1Oc1c(Cl)cc(Cl)c(Cl)c1Cl
- Inhibition (Rattus norvegicus [1]): 43%
- Relative potency (Rattus norvegicus [3]): 8

SMILES: O=C(O)Cc1ccccc1Oc1cc(Cl)cc(Cl)c1Cl
- Inhibition (Rattus norvegicus [1]): 21%
- Relative potency (Rattus norvegicus [3]): 1.5

SMILES: O=C(O)Cc1ccccc1[S+]([O-])c1c(Cl)c(Cl)cc(Cl)c1Cl (stereo unspecified)
- inhibition in vivo at 0.08 mg/kg (Rattus norvegicus [9]): 19%

SMILES: O=C(O)Cc1ccccc1Oc1ccc(Cl)cc1Cl [FENCLOFENAC]
- inhibition in vivo at 100 mg/kg (Rattus norvegicus [10]): 35%
- Relative potency (Rattus norvegicus [5]): 1
- MUD (Rattus norvegicus [11]): 800 mg/kg

SMILES: COc1ccc2c(c1)c(CC(=O)O)c(C)n2C(=O)c1ccc(Cl)cc1 [INDOMETHACIN]
- MUD (Rattus norvegicus [12]): 1.25 mg/kg
- LD50 [6]: 19.8 mg/kg
